In a melting point compilation (Tetko et al.; mined from patent text by program, amines drawn as free bases though some values may be those of a salt) one finds melting point data, which are given here for 88 compounds.

The compound `CNc1cc(Oc2cccc(C(F)(F)F)c2)nc(C(=O)Nc2ccccc2)c1` yielded a melting point of 158 to 160 °C.

As for `COc1cc2[nH]c3ncnc(N4CCNCC4)c3c2cc1OC`, the melting point was 185 °C. The same measure for `COc1cccc(CCN2C(=O)c3cc(Cl)c(Cl)cc3C2(O)c2ccc(F)cc2)c1` (stereo not drawn): 169 °C. Compound `CSc1nnc2c(=O)[nH]c(-c3ccccc3OCC(C)C)nc2n1` returned a melting point of 237 to 238 °C. In turn, `CC(O)(CCC#N)c1ccc(-c2ccc(F)cc2)cc1` (stereo not drawn) registered a melting point of 118 to 120 °C.

The compound `CC1(C)COC(c2ccccc2-c2ccc(-c3ccccc3)cc2)=N1` had a melting point of 95 to 97 °C.

`c1ccc(-c2ccc(OCC3CO3)cc2)cc1` (stereo not drawn) registered a melting point of 80.2 to 82.9 °C. As for `CCOC(=O)/C=C/C1N(C(C)C)C(=O)c2ccccc2C1(O)c1ccc(F)cc1` (stereo not drawn), the figure is 220 to 221 °C. On to `COc1cccc(Oc2ccc3nc(C(C)=O)c(O)cc3c2)c1`, for which the melting point lay in the range of 102 to 104 °C. The same measure for `Cc1nnc2ccc(-c3ccc(F)cc3)nn12`: 227 to 229 °C; for `COCC(=O)Nc1c(C(=O)c2cccc(Cl)c2)[nH]c2cc(Cl)ccc12`: 154 to 155 °C; for `COC(=O)NNC(=S)Cc1ccc2ccccc2c1`: 129 to 131 °C. `O=C(CC(=O)c1ccccc1C(=O)O)c1ccc(Cl)cc1` showed a melting point of 148 to 150 °C. As for `Cc1c(CCl)sc2cc(Br)ccc12`, the figure is 92 to 93 °C; as for `CCOCCN(C(=O)N(CCCl)N=O)C1(O)C(CO)OC(OC2CCCCC2)C1O` (stereo not drawn), 62 to 64 °C; as for `CC(=O)Nc1ncc(C=O)s1`, 235 to 236 °C. Compound `S=C1Cc2c([nH]c3ccc(Br)cc23)-c2ccccc2N1` came in with a melting point above 330 °C.

For `CCCCc1nc(Cl)c(COc2ccccn2)n1Cc1ccc(-c2ccccc2-c2nnn[nH]2)cc1`, the melting point lay in the range of 98 to 100 °C. On to `Cn1nc(C(F)(F)F)c(CN2C(=O)C3(COc4cc5c(cc43)OCO5)c3ccccc32)c1Cl` (stereo not drawn), for which the melting point lay in the range of 180 to 182 °C. As for `COc1cc(NC(=O)CCCCCN2CCN(c3ccccn3)CC2)c2nccc(C)c2c1`, the melting point lay in the range of 120 to 121 °C. The same measure for `CC12CCC3c4ccc(O)cc4CCC3C1CC(O)C2` (stereo not drawn): 181 to 182 °C; for `CC(C)c1cccc(C(C)C)c1NC(=O)C(N)Cc1c[nH]c2ccccc12` (stereo not drawn): 185 to 187 °C. The same measure for `Nc1ncnc2c1c(-c1ccc(Oc3ccccc3)cc1)cn2C1COCC1O` (stereo not drawn): 234 to 236 °C; for `CC(C)C(O)=C(C#N)C#N`: 92 to 93 °C; for `COC(=O)C1CCCN1S(=O)(=O)c1ccc(Cl)c(COc2cccn3c(C(C)=O)c(C)nc23)c1Cl` (stereo not drawn): 178 °C. For the compound `O=C(N[C@H]1CCCNC1=O)c1cccc(C(F)(F)F)c1`, the melting point is 148 to 150 °C. Take `CC1(C)CC(=O)Nc2c(Br)cc3c(c21)OC(CBr)C3` (stereo not drawn): the melting point was in the range of 237 to 239 °C. Turning to `Cc1cccc2c1N(CC(=O)N1CC3CCC(CC3)C1)C(=O)C(NC(=O)Nc1cccc(C(=O)OC(C)(C)C)c1)N=C2c1ccccc1F` (stereo not drawn), the melting point lay within 230 to 232 °C. The compound `CS(=O)(=O)c1ccc(-c2cnn(CC(F)(F)F)c(=O)c2OCC2CC2)cc1` registered a melting point of 133 to 135 °C. `CC(=O)OC1C(N(C)S(C)(=O)=O)c2cc(OCc3ccccc3)ccc2OC1(C)C` (stereo not drawn): the melting point lay within 124 to 125 °C. With `NC(=O)C1CCN(Cc2cnc3cc(NC(=O)c4ccc(-c5ccc(F)cc5)cc4)ccc3c2)CC1`, the melting point was in the range of 261 to 265 °C. As for `c1ccc(Cn2cncc2-c2cnc(-c3ccccc3)nc2)cc1`, the melting point was 140 °C. For `CC(C)(C)NCC(O)COc1ccc2oc(-c3ccc(OCc4ccccc4)c(OCc4ccccc4)c3)cc(=O)c2c1` (stereo not drawn), the melting point was in the range of 156 to 157 °C. As for `Nc1cc(Br)ccc1-c1ccc(Br)cc1N`, the figure is 118 to 119 °C; as for `COc1ccc(/C=C/C(=O)Nc2cc(OC)c(OC)cc2C(=O)O)cc1OC`, 236 to 239 °C; as for `C#CCn1nc(-c2cc(C(C)(C)C)c(O)c(C(C)(C)C)c2)c2cccnc21`, 172 to 174 °C. The compound `NC1CC(N)(C(=O)O)C2C(C(=O)O)C12` (stereo not drawn) returned a melting point above 275 °C. In turn, `O=S(=O)(c1cccc(-c2cccc(-c3nc(-c4ccc(C(F)(F)F)cc4)cc(C(F)(F)F)n3)c2)c1)N(CCO)CCO` displayed a melting point of 112 °C. In turn, `CCCC(=O)ON=C(c1ccccc1)c1cc(C(C)(C)C)c(O)c(C(C)(C)C)c1` registered a melting point of 118 to 119 °C. The same measure for `COc1cc(COc2nn(-c3ccccc3)cc2/C=C/c2nnc(C)[nH]2)ccc1OCc1nc(-c2ccco2)oc1C`: 165 to 166 °C; for `CC(C)(C(=O)O)c1ccc(CCl)cc1`: 121 to 122 °C. As for `CC(=O)OC[C@H]1O[C@@H]2[C@@H](Sc3ccc(Cl)cc3N2CCCN(C)C)[C@@H](OC(C)=O)[C@@H]1OC(C)=O`, the figure is 149 to 151 °C; as for `O=C(O)C(=O)c1ccc(OCCOC23CC4CC(CC(C4)C2)C3)cc1`, 107 to 109 °C; as for `COc1ccc(N2CCN(c3c(C)c4c(c(C)c3Br)OC(C)(C)C4)CC2)cc1`, 180 to 181 °C. In turn, `O=C(O)CCCCCCCOc1nc(-c2ccccc2)c(-c2ccccc2)n1-c1ccccc1` yielded a melting point of 158 to 159 °C. In the case of `COc1ccc2c(c1)sc1ncc(CO)n12`, the melting point fell in the range of 202 to 204 °C. `O=C1C=C(O)CC(c2ccc3c(c2)OCCO3)C1` (stereo not drawn): the melting point came out at 188 °C. `CC1CC2(NC(=O)NC2=O)c2cc(F)ccc2O1` (stereo not drawn) yielded a melting point of 233 to 235 °C. As for `O=C(O)C1C=Nc2c(cccc2[N+](=O)[O-])C1=O` (stereo not drawn), the figure is 263 to 265 °C; as for `c1ccc(CCN2CCC(c3cc(-c4ccccn4)[nH]n3)CC2)cc1`, 155 to 157 °C; as for `COC(=O)c1cc(/C=C/C(=O)O)ccc1Cl`, 194 °C. With `COCCCNC(=O)c1cc2c(nc(C)n2C)c2c1CCC1(Cc3ccccc3C1)N2`, the melting point lay in the range of 188 to 189 °C. For the compound `Cc1cc(Oc2cccc(C#CC(C)N(O)C(N)=O)c2)ccc1F` (stereo not drawn), the melting point was 141 to 142 °C.

Compound `CCCC(=O)CS(N)(=O)=O` came in with a melting point of 117 °C.

Regarding `N#CCC(O)(c1ccccc1C(F)(F)F)c1ccccc1C(F)(F)F`, the melting point was 168 to 170 °C. In the case of `Cc1ccc(C=CC(=O)NNC(=O)CCc2cc(C(C)(C)C)c(O)c(C(C)(C)C)c2)cc1`, the melting point was 274 to 275 °C.

In turn, `COc1ccc(-c2cc3cc(OC)cc(CC(F)(F)F)c3o2)cc1` displayed a melting point of 113 to 115 °C. In turn, `CC(C)N(CCC(CCN(C)C)(C(N)=O)c1ccc(F)cc1)C(C)C` (stereo not drawn) yielded a melting point of 78 to 80 °C.

Turning to `Cn1nc(-c2ccc(C#N)cc2)cc(C(=O)N[C@H]2CC[C@H](C(=O)O)CC2)c1=O`, the melting point fell in the range of 283 to 286 °C. Compound `CC(=O)c1ccc(C2CCC(CC(=O)NC3CCN(Cc4ccc(Cl)c(Cl)c4)CC3)CC2)cc1` (stereo not drawn) yielded a melting point of 168 °C. Compound `NC(=O)CNC(=O)c1cc(-c2cccc3cc(Cc4cc(F)cc(Cl)c4)sc23)ccc1F` returned a melting point of 129 to 130 °C.

`CN1C(=O)CC[C@]2(C)c3ccc(-c4cccc(Cl)c4Cl)cc3CC[C@@H]12` yielded a melting point of 131 to 134 °C. The same measure for `COC(=O)c1ccc2ncc(C(=O)NCc3ccc(Cl)cc3)c(O)c2c1`: 290 to 292 °C; for `C=C(C)COc1ccc(C(=O)C=Cc2ccc(OC)cc2OC)c(O)c1`: 106 to 107 °C; for `COc1ccc(N2CCN(c3ccc(-n4cnn(C)c4=O)cc3)CC2)cc1`: 246 °C. For `COc1cc(C(=O)c2nccn2C)cc([N+](=O)[O-])c1OC`, the melting point was in the range of 144 to 145 °C.

As to `COC1=C(OC)C(=O)C2=C(CCC(CCOc3ccc(C)cc3)CC2)C1=O`, the melting point is 56 to 57 °C. As for `CCCCCCCCCCCCCCCCC[C@H](C[C@H](O)[C@H](CC)C(=O)O)OCc1ccccc1`, the melting point lay within 62 to 63.5 °C. As for `CC(C)(Oc1ccc(COCc2ccc3cn(-c4ccc(C(F)(F)F)cc4)nc3c2)cc1)C(=O)O`, the figure is 129 to 131 °C. For the compound `COC(=O)CCc1nc(-c2cc3ccccc3o2)no1`, the melting point fell in the range of 112 to 113 °C. Regarding `CN(Cc1ccc(NC(=O)C2=Cc3cc(-c4ccncc4)ccc3OCC2)cc1)C1CCOCC1`, the melting point was in the range of 186 to 187 °C. As for `COc1c(OCC(F)(F)C(F)(F)F)ccnc1CSc1nc2ccccc2[nH]1`, the melting point was in the range of 116 to 117 °C.

`CC1(COC(=O)Oc2c(F)c(F)c(F)c(F)c2F)COC(=O)OC1` yielded a melting point of 130 to 131 °C. As for `CC(C)C1(C)CCNC1=O` (stereo not drawn), the figure is 88 to 90 °C.

With `Cc1ccc(Oc2ccc(-c3ccccc3)cc2)cc1`, the melting point lay within 97 to 99 °C. `COc1ccccc1CNc1ccc2cc(Nc3nccc(C(F)(F)F)n3)ccc2n1` had a melting point of 114 °C.

The compound `O=C1CC(NC(=O)c2cccnc2)CCCN1` (stereo not drawn) came in with a melting point of 220 to 221 °C. The compound `c1ccc(COc2ccc3nc(-c4ccc(OCc5ccccc5)c(C56CC7CC(CC(C7)C5)C6)c4)[nH]c3c2)cc1` displayed a melting point of 265 to 275 °C. In the case of `N#Cc1ccc(COc2ccc3ccccc3c2C=O)cc1`, the melting point was in the range of 163 to 164 °C. The same measure for `CCSC1=NCC(O)CN1` (stereo not drawn): 106 to 108 °C; for `Cn1ncc2[nH]c3ccc(Cc4ccc(C#N)cc4)cc3c(=O)c21`: 291 °C; for `COc1cc(C2CCN(CCO)CC2)ccc1Nc1ncc2ccc(-c3cccc(S(=O)(=O)NC(C)(C)C)c3)n2n1`: 220 to 224 °C. With `COc1ccc(OC)c2c1CC(O)(C(=O)O)CC21SCCS1` (stereo not drawn), the melting point lay in the range of 178 to 180 °C. As for `CC(=O)OC1c2ccccc2C(=O)N1CCO[N+](=O)[O-]` (stereo not drawn), the melting point lay within 74 to 75 °C. As for `CC(C)Oc1ccc(NC(=O)C2(Cl)CC2)cc1C(F)(F)F`, the figure is 106 to 108 °C; as for `CN1CCN(CCCc2c[nH]c(-c3ccc(F)cc3)c2-c2ccncc2)CC1`, 190 to 192 °C; as for `N#Cc1ccc(-c2cccc(C=O)c2)cc1`, 122 to 123 °C. `CN(C)S(=O)(=O)c1cccc(-c2ccnc(C(=O)N(O)Cc3ccccc3)c2)c1` registered a melting point of 110 to 115 °C.
